Reference: the NIST ThermoML archive (doi:10.1021/acs.jced.7b00106)
Numbers after ± are expanded uncertainties.

Details: Hot wire method

FC(F)(F)/C=C/Cl [(E)-1-chloro-3,3,3-trifluoroprop-1-ene]
Details | thermal conductivity [W/m/K]
423.65 K, 7612 kPa, Liquid | 0.05622 ± 0.0015
423.65 K, 7619 kPa, Liquid | 0.05627 ± 0.0011
423.65 K, 22720 kPa, Liquid | 0.06706 ± 0.00087
423.66 K, 22716 kPa, Liquid | 0.06723 ± 0.00076
423.67 K, 28114 kPa, Liquid | 0.07024 ± 0.0015
423.69 K, 28097 kPa, Liquid | 0.07022 ± 0.00091
423.72 K, 13391 kPa, Liquid | 0.0611 ± 0.00076
423.72 K, 13398 kPa, Liquid | 0.06111 ± 0.00076
423.77 K, 20045 kPa, Liquid | 0.06561 ± 0.0016
423.77 K, 20052 kPa, Liquid | 0.06562 ± 0.0021
423.78 K, 11664 kPa, Liquid | 0.05978 ± 0.0051
423.79 K, 11674 kPa, Liquid | 0.05981 ± 0.0011
423.83 K, 25690 kPa, Liquid | 0.06889 ± 0.0013
423.84 K, 25696 kPa, Liquid | 0.06888 ± 0.0015
423.85 K, 10139 kPa, Liquid | 0.05851 ± 0.0012
423.86 K, 10145 kPa, Liquid | 0.05848 ± 0.0007
423.86 K, 17471 kPa, Liquid | 0.06395 ± 0.0078
423.87 K, 17475 kPa, Liquid | 0.06396 ± 0.0077
423.93 K, 15376 kPa, Liquid | 0.06253 ± 0.0015
423.93 K, 15379 kPa, Liquid | 0.06254 ± 0.0015
423.94 K, 22691 kPa, Liquid | 0.06716 ± 0.0018
423.95 K, 22710 kPa, Liquid | 0.06724 ± 0.00088
424.02 K, 13386 kPa, Liquid | 0.06109 ± 0.0007
424.02 K, 13393 kPa, Liquid | 0.06113 ± 0.0011
451.03 K, 4240 kPa, Fluid (supercritical or subcritical phases) | 0.04303
451.04 K, 4194 kPa, Fluid (supercritical or subcritical phases) | 0.04141
451.04 K, 4285 kPa, Fluid (supercritical or subcritical phases) | 0.0443
451.05 K, 4194 kPa, Fluid (supercritical or subcritical phases) | 0.04138
451.05 K, 4285 kPa, Fluid (supercritical or subcritical phases) | 0.04428
451.1 K, 4194 kPa, Fluid (supercritical or subcritical phases) | 0.0413
451.11 K, 4329 kPa, Fluid (supercritical or subcritical phases) | 0.04555
451.12 K, 4329 kPa, Fluid (supercritical or subcritical phases) | 0.04569
451.13 K, 4146 kPa, Fluid (supercritical or subcritical phases) | 0.03927
451.14 K, 4146 kPa, Fluid (supercritical or subcritical phases) | 0.03925
451.15 K, 4091 kPa, Fluid (supercritical or subcritical phases) | 0.03775
451.19 K, 4240 kPa, Fluid (supercritical or subcritical phases) | 0.0441 ± 0.019
451.2 K, 4146 kPa, Fluid (supercritical or subcritical phases) | 0.03962
451.2 K, 4240 kPa, Fluid (supercritical or subcritical phases) | 0.04407 ± 0.02
451.21 K, 4024 kPa, Fluid (supercritical or subcritical phases) | 0.03539
451.21 K, 4146 kPa, Fluid (supercritical or subcritical phases) | 0.03961
451.21 K, 4329 kPa, Fluid (supercritical or subcritical phases) | 0.0465
451.22 K, 4091 kPa, Fluid (supercritical or subcritical phases) | 0.03768
451.22 K, 4285 kPa, Fluid (supercritical or subcritical phases) | 0.04586
451.22 K, 4329 kPa, Fluid (supercritical or subcritical phases) | 0.04642
451.24 K, 4335 kPa, Fluid (supercritical or subcritical phases) | 0.04596
451.24 K, 4404 kPa, Fluid (supercritical or subcritical phases) | 0.04602
451.25 K, 4146 kPa, Fluid (supercritical or subcritical phases) | 0.03998
451.25 K, 4335 kPa, Fluid (supercritical or subcritical phases) | 0.04625
451.25 K, 4404 kPa, Fluid (supercritical or subcritical phases) | 0.04634
451.26 K, 3939 kPa, Fluid (supercritical or subcritical phases) | 0.03353 ± 0.0096
451.27 K, 4025 kPa, Fluid (supercritical or subcritical phases) | 0.03578 ± 0.015
451.28 K, 4024 kPa, Fluid (supercritical or subcritical phases) | 0.03519
451.28 K, 4091 kPa, Fluid (supercritical or subcritical phases) | 0.03788
451.29 K, 4090 kPa, Fluid (supercritical or subcritical phases) | 0.0379
451.3 K, 4146 kPa, Fluid (supercritical or subcritical phases) | 0.04026
451.31 K, 4146 kPa, Fluid (supercritical or subcritical phases) | 0.04022
451.32 K, 3831 kPa, Fluid (supercritical or subcritical phases) | 0.03175 ± 0.015
451.35 K, 3691 kPa, Fluid (supercritical or subcritical phases) | 0.02988 ± 0.0076
451.35 K, 4024 kPa, Fluid (supercritical or subcritical phases) | 0.03573
451.35 K, 4025 kPa, Fluid (supercritical or subcritical phases) | 0.03528
451.35 K, 4091 kPa, Fluid (supercritical or subcritical phases) | 0.0383 ± 0.018
451.36 K, 3691 kPa, Fluid (supercritical or subcritical phases) | 0.02992 ± 0.0081
451.36 K, 4091 kPa, Fluid (supercritical or subcritical phases) | 0.03832 ± 0.019
451.37 K, 4404 kPa, Fluid (supercritical or subcritical phases) | 0.04741 ± 0.011
451.38 K, 3649 kPa, Fluid (supercritical or subcritical phases) | 0.02977 ± 0.011
451.39 K, 3831 kPa, Fluid (supercritical or subcritical phases) | 0.03167 ± 0.012
451.4 K, 3831 kPa, Fluid (supercritical or subcritical phases) | 0.03184 ± 0.0098
451.41 K, 3939 kPa, Fluid (supercritical or subcritical phases) | 0.03376
451.42 K, 3508 kPa, Fluid (supercritical or subcritical phases) | 0.02833 ± 0.0078
451.43 K, 3509 kPa, Fluid (supercritical or subcritical phases) | 0.02845 ± 0.0059
451.44 K, 3691 kPa, Fluid (supercritical or subcritical phases) | 0.02982
451.44 K, 4090 kPa, Fluid (supercritical or subcritical phases) | 0.03859
